This passage reports pest or weed control results from patent US20220127255A1, “HERBICIDAL COMPOUNDS” (SYNGENTA CROP PROTECTION AG, priority 2019, published 2022).

Holding throughout (assay): Post-emergence efficacy, glasshouse spray test
Type in all cases: in vivo

Test [1] deals with Ipomoea hederacea (IPOHE). The settings on record: 312 h, read-out: Control of weed species IPOHE after post-emergence application (100=total damage to plant; 0=no damage to plant). As for the experimental part:
(§1) Seeds of a variety of test species were sown in standard soil in pots. After cultivation for 14 days (post-emergence) under controlled conditions in a glasshouse (at 24/16° C., day/night; 14 hours light; 65% humidity), the plants were sprayed with an aqueous spray solution derived from the dissolution of the technical active ingredient formula (I) in a small amount of acetone and a special solvent and emulsifier mixture referred to as IF50 (11.12% Emulsogen EL360 TM+44.44% N-methylpyrrolidone+44.44% Dowanol DPM glycol ether), to create a 50 g/l solution which was then diluted to required concentration using 0.25% or 1% Empicol ESC70 (Sodium lauryl ether sulphate)+1% ammonium sulphate as diluent.
(§2) The test plants were then grown in a glasshouse under controlled conditions (at 24/16° C., day/night; 14 hours light; 65% humidity) and watered twice daily. After 13 days the test was evaluated (100=total damage to plant; 0=no damage to plant).
(§3) Ipomoea hederacea (IPOHE), Euphorbia heterophylla (EPHHL), Chenopodium album (CHEAL), Amaranthus palmeri (AMAPA), Lolium perenne (LOLPE), Digitaria sanguinalis (DIGSA), Eleusine indica (ELEIN), Echinochloa crus-galli (ECHCG), Setaria faberi (SETFA)

The test system of test [2] is Digitaria sanguinalis (DIGSA). The settings on record: 312 h, read-out: Control of weed species DIGSA after post-emergence application (100=total damage to plant; 0=no damage to plant). As for the experimental part:
as §1, §2, §3

For the next test, the system named is Eleusine indica (ELEIN). The settings on record: 312 h, read-out: Control of weed species ELEIN after post-emergence application (100=total damage to plant; 0=no damage to plant). As for the experimental part: as §1, §2, §3
For test [3], the system named is Echinochloa crus-galli (ECHCG). The settings on record: 312 h, read-out: Control of weed species ECHCG after post-emergence application (100=total damage to plant; 0=no damage to plant). As for the experimental part: as §1, §2, §3
Test [4] has as its system Euphorbia heterophylla (EPHHL). The settings on record: 312 h, read-out: Control of weed species EPHHL after post-emergence application (100=total damage to plant; 0=no damage to plant). As for the experimental part:
as §1, §2, §3

For test [5], the system named is Amaranthus palmeri (AMAPA). The settings on record: 312 h, read-out: Control of weed species AMAPA after post-emergence application (100=total damage to plant; 0=no damage to plant). As for the experimental part:
as §1, §2, §3

Another test relates to Setaria faberi (SETFA). The settings on record: 312 h, read-out: Control of weed species SETFA after post-emergence application (100=total damage to plant; 0=no damage to plant). As for the experimental part:
as §1, §2, §3

The next test relates to Lolium perenne (LOLPE). The settings on record: 312 h, read-out: Control of weed species LOLPE after post-emergence application (100=total damage to plant; 0=no damage to plant). As for the experimental part: as §1, §2, §3
The subject of test [6] is Chenopodium album (CHEAL). The settings on record: 312 h, read-out: Control of weed species CHEAL after post-emergence application (100=total damage to plant; 0=no damage to plant). As for the experimental part: as §1, §2, §3
Setting [7] is: 500 g/Ha, evaluated after 13 days.
[8] abbreviates: 130 g/Ha, evaluated after 13 days.

Where a name gives a salt, the structure may show the parent alone. Read-outs that look alike come from different tables or passages of the source.

With `Oc1cc(C[n+]2ccc(-c3ncccn3)cn2)on1` [Compound A9, 5-[(4-pyrimidin-2-ylpyridazin-1-ium-1-yl)methyl]isoxazol-3-ol 2,2,2-trifluoroacetate], the pest or weed control at 500 g/ha in [1] (setting [7]) is 20%; in test [2] (setting [7]) it was 40%; in the test with Eleusine indica (ELEIN) (setting [7]), 20%; in [3] (setting [7]), 30%; in test [4] (setting [7]), 30%; in test [5] (setting [7]), 20%. The pest or weed control at 500 g/ha came to 20% in the test with Setaria faberi (SETFA) (setting [7]), 10% with Lolium perenne (LOLPE) (setting [7]) and 40% in test [6] (setting [7]).
As for `O=C1NC(=O)C(CC[n+]2ccc(-c3ncccn3)cn2)S1` (stereo not drawn) [Compound A1, 5-[2-(4-pyrimidin-2-ylpyridazin-1-ium-1-yl)ethyl]thiazolidine-2,4-dione trifluoroacetate], the pest or weed control at 500 g/ha in test [1] amounted to 50%; in [2], 60%; with Eleusine indica (ELEIN) it was 70%; in test [3] it was 50%; in test [4] it was 50%; in test [5] it was 90%. The results for the pest or weed control at 500 g/ha (in the test with Setaria faberi (SETFA); in the test with Lolium perenne (LOLPE); in test [6]) were 60%, 40% and 30%, respectively.
Turning to `O=C(C[n+]1ccc(-c2ncccn2)cn1)Nc1nnn[n-]1` [Compound A7], the pest or weed control at 500 g/ha in test [1] (setting [7]) came to 30%; in test [2] (setting [7]), 30%; with Eleusine indica (ELEIN) (setting [7]), 30%; in test [3] (setting [7]), 20%; in [4] (setting [7]) it was 30%; in test [5] (setting [7]) it was 90%. The pest or weed control at 500 g/ha in the test on Setaria faberi (SETFA) (setting [7]) is 50%; with Lolium perenne (LOLPE) (setting [7]), 10%; in test [6] (setting [7]), 90%.
On to `O=C(C[n+]1ccc(-c2ncccn2)cn1)Nc1nccs1` [Compound A4], for which the pest or weed control at 500 g/ha in [1] (setting [7]) is 10%; in test [2] (setting [7]), 10%; with Eleusine indica (ELEIN) (setting [7]), 80%; in test [3] (setting [7]) it was 0%; in [4] (setting [7]), 100%; in [5] (setting [7]), 70%. Besides, the values for the pest or weed control at 500 g/ha (in the test with Setaria faberi (SETFA) (setting [7]); in the test on Lolium perenne (LOLPE) (setting [7]); in test [6] (setting [7])) were 20%, 0% and 60%, respectively.
Take `O=C(C[n+]1ccc(-c2ncccn2)cn1)Nc1nncs1` [Compound A5]: the pest or weed control at 500 g/ha in test [1] (setting [7]) was determined as 20%; in test [2] (setting [7]), 70%; in the test on Eleusine indica (ELEIN) (setting [7]), 70%; in [3] (setting [7]), 50%; in test [4] (setting [7]) it was 20%; in test [5] (setting [7]), 100%. The pest or weed control at 500 g/ha worked out at 20% in the test on Setaria faberi (SETFA) (setting [7]), 0% with Lolium perenne (LOLPE) (setting [7]) and 30% in test [6] (setting [7]).
On to `Cc1nnc(NC(=O)C[n+]2ccc(-c3ncccn3)cn2)s1` [Compound A3], for which the pest or weed control at 500 g/ha in [2] (setting [7]) was 0%; in the test on Eleusine indica (ELEIN) (setting [7]) it was 0%; in [3] (setting [7]), 10%; in test [5] (setting [7]), 50%; with Setaria faberi (SETFA) (setting [7]), 0%; with Lolium perenne (LOLPE) (setting [7]), 0%. The pest or weed control at 500 g/ha in test [6] (setting [7]) was determined as 30%.
For the molecule `Cc1cc(O)c(C(=O)C[n+]2ccc(-c3ncccn3)cn2)c(=O)o1` [Compound A2, 4-hydroxy-6-methyl-3-[2-(4-pyrimidin-2-ylpyridazin-1-ium-1-yl)acetyl]pyran-2-one trifluoroacetate], the pest or weed control at 500 g/ha in [1] (setting [7]) stood at 10%; in test [2] (setting [7]), 30%; with Eleusine indica (ELEIN) (setting [7]), 70%; in test [3] (setting [7]) it was 20%; in test [4] (setting [7]), 70%; in test [5] (setting [7]) it was 90%. Besides, the pest or weed control at 500 g/ha in the test with Setaria faberi (SETFA) (setting [7]) came to 20%; with Lolium perenne (LOLPE) (setting [7]) it was 10%; in test [6] (setting [7]) it was 0%.
With `Cn1nnnc1NC(=O)C[n+]1ccc(-c2ncccn2)cn1` [Compound A6], the pest or weed control at 500 g/ha was 40% in [1] (setting [7]); 30% in test [2] (setting [7]); 20% in the test on Eleusine indica (ELEIN) (setting [7]); 30% in test [3] (setting [7]); 80% in [4] (setting [7]); 90% in test [5] (setting [7]). For the same molecule, the pest or weed control at 500 g/ha in the test with Setaria faberi (SETFA) (setting [7]) was 30%; in the test on Lolium perenne (LOLPE) (setting [7]), 0%; in test [6] (setting [7]), 90%.
For the molecule `O=S(=O)(CC[n+]1ccc(-c2ncccn2)cn1)c1cnn[nH]1` [Compound A8, 4-pyrimidin-2-yl-1-[2-(1H-triazol-5-ylsulfonyl)ethyl]pyridazin-1-ium 2,2,2-trifluoroacetate], the pest or weed control at 130 g/ha in test [1] (setting [8]) was found to be 20%; in the test on Eleusine indica (ELEIN) (setting [8]), 50%; in [3] (setting [8]), 40%; in [4] (setting [8]), 70%; in [5] (setting [8]), 60%; in the test on Setaria faberi (SETFA) (setting [8]) it was 50%. Moreover, the pest or weed control at 130 g/ha (in the test on Lolium perenne (LOLPE) (setting [8]); in [6] (setting [8])) was 0% throughout.
